{"source": "paper PMC7555119", "about": "“Characterization of Novel Synthetic Polyphenols: Validation of Antioxidant and Vasculoprotective Activities” (Antioxidants, 2020)", "key": {"[1]": {"experiment": "Oxygen radical absorbance capacity (ORAC) assay", "protocol": "The ORAC assay was performed following Ou et al., as modified by Garcés-Rimón et al.. All samples and reagents were dissolved in phosphate buffer (75 mM; pH 7.4). […] The fluorescence was recorded at 40 °C every 55 s for 95 min using a fluorimeter (SpectraMax M2; Molecular Devices, California, USA), with excitation and emission wavelengths of 480 and 520 nm, respectively. All samples were tested in triplicate. ORAC values were expressed as μmol of Trolox equivalents (TE)/μmol of pure compound."}, "[2]": {"experiment": "ABTS radical cation scavenging assay", "protocol": "The 2,2′-azino-bis (3-ethylbenzothiazoline-6-sulfonic acid) diammonium salt (ABTS) assay was performed according to Re et al. and modified by Oki et al. for its use in microplates. Samples were diluted in methanol. An ABTS^•+ stock solution was prepared by adding 44 μL of potassium persulfate (140 mmol/L) to a 2.5 mL ABTS^•+ aqueous solution (7 mmol/L). The working solution of the radical ABTS^+ was prepared by diluting the stock solution 1:75 (v/v) in a sodium phosphate buffer (5 mmol/L, pH 7.4) to obtain an absorbance value of 0.7±0.02 at 734 nm. Samples (30 μL) were added to 270 μL of the working solution of ABTS^•+ in a microplate. Absorbance was measured at 734 nm and 30 °C for 20 min, every 5 min in a Synergy HT plate spectrophotometer (Biotek Instruments, Winoosky, VT, USA). A calibration curve was made with Trolox (20–250 μM). All samples were analyzed in triplicate. Results were expressed in μmol TE/μmol of pure compound, as for the ORAC assays."}}, "note": "Where two headings read alike, the source gives them in different places."}
{"smiles": "O=C(Nc1ccc(O)cc1)N(c1ccc(O)cc1)c1ccc(O)cc1", "note": "[Compound 17, N,N-bis(4-Hydroxyphenyl)-N′-(4′-hydroxyphenyl)urea]", "values": [{"measurement": "ORAC", "setting": "[1]", "value": "19.4 ± 0.7 µmol of trolox/µmol of pure compound"}, {"measurement": "ORAC", "setting": "[1]; TE: Trolox Equivalents", "value": "> 19", "unit": "TE"}, {"measurement": "ABTS", "setting": "[2]", "value": "3.57 ± 0.00 µmol of trolox/µmol of pure compound"}]}
